Measured values: PubChem BioAssay AID766 (NMMLSC, 2007)
pKi: −log10 of the molar value.

target: N-formyl peptide receptor 2 (Homo sapiens) (UniProt P25090); assay: FPRL1 fluorescent ligand binding inhibitors, dose response, cell-based, flow cytometry, Ki from IC50 (AID 766); conditions: FPRL1-expressing cells, fluorescent ligand binding competition, binding constant from IC50
Sequence (P25090 whole entry, looked up): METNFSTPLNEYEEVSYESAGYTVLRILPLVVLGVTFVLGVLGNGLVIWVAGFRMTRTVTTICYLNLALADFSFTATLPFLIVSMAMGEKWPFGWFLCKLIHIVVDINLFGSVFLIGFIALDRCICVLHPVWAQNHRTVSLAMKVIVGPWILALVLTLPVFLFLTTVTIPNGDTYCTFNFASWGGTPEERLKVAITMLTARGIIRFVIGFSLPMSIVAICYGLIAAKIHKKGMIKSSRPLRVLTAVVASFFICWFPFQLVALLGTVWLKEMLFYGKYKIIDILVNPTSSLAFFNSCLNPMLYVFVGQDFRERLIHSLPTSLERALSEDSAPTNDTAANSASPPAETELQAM

Structure (SMILES)	pKi
COc1ccc(-c2cc(C(F)(F)F)nc(N3CCN(Cc4ccccc4)CC3)n2)cc1OC	5.00
COc1ccc(-c2cn3cccnc3n2)cc1NC(=O)C1CCCC1	< 4.40
COc1ccc(CC(=O)Nc2cc(-c3cn4cccnc4n3)ccc2OC)cc1	5.22
COc1ccc(-c2cc(C(F)(F)F)nc(N3CCN(c4ccccc4)CC3)n2)cc1OC	< 4.52
COc1ccc(-c2cn3cccnc3n2)cc1NC(=O)C(C)C	5.66

Results, then the molecule that gave them:

pKi	Structure (SMILES)
5.19	CCC(=O)Nc1cc(-c2cn3cccnc3n2)ccc1OC
5.39	COc1ccc(-c2cn3cccnc3n2)cc1NC(=O)C1CC1
< 4.52	CCOC(=O)N1CCN(c2nc(-c3ccc(OC)c(OC)c3)cc(C(F)(F)F)n2)CC1
< 4.46	O=C(N1CCN(c2nc(-c3ccccc3)c3ccccc3n2)CC1)C(F)(F)F
< 4.60	COc1ccc(-c2cc(C(F)(F)F)nc(N3CCN(C(c4ccccc4)c4ccccc4)CC3)n2)cc1OC
